One molecule from the NIST ThermoML archive (doi:10.1016/j.jct.2019.01.015) can be followed below.

The conditions of data set [1]: Crystal; DSC.
The nature of data set [2]: Molar enthalpy of transition or fusion. To be noted: Crystal; DSC.

± gives the expanded uncertainty stated by the source.

On to `C=NCC#N` [methyleneaminoacetonitrile], for which the Triple point temperature in data set [1] is given as 402.15 ± 1 K. Also, in data set [2], the “Molar enthalpy of transition or fusion” value was determined as 10.7 ± 0.37 kJ/mol.
